Literature values, collected in patent US20220031715A1, “COMPOSITIONS AND METHODS FOR ENHANCING WOUND HEALING” (priority 2018, published 2022).

How the values were obtained:
[1] = tested on: NR1I2/PAR, NR1i2/PXR, ESR1, NFE2L2/HEBP1, NR1 L3/CAR, and TSHR; details: at least six receptors

Q: What does the source list for O=P(Oc1ccccc1)(Oc1ccccc1)Oc1ccccc1 [TPP, triphenyl phosphate]?
A: activation of hormone receptors [1]: activates; toxicity (mammals): very low toxicity
